In PMC11401861, “Assessment of the in vitro anti-diabetic activity with molecular dynamic simulations of limonoids isolated from Adalia lemon peels” (Scientific Reports, 2024):
≈ marks a conversion by molar mass, not a printed value.

How the values were obtained:
[1] = Total antioxidant capacity (TAC), method of Prieto et al.
Protocol: (§1) All in vitro biological activities of the limonoids-rich extract and the isolated compounds were assayed in triplicate at three different concentrations (50, 100, and 200 µg/mL).
The method proposed by Prieto et al.[30] was used to determine the total antioxidant capacity (TAC) expressed as mg […] equivalent per gram weight, using ascorbic acid at the same concentrations as a standard.

[2] = Iron reducing power (IRP), method of Oyaizu
[3] = DPPH radical scavenging activity
Protocol: as §1
The 1,1-Diphenyl-2-picryl-hydrazyl (DPPH) radical scavenging activity was evaluated using the method described by Rahman et al.[32]. Ascorbic acid was used as a positive control at the same concentrations. The inhibition percentage of the DPPH free radical was calculated. The median inhibitory concentration (IC50) of each tested sample was determined by plotting a curve using a series of sample concentrations against the percentage of DPPH inhibition.

[4] = ABTS radical scavenging assay
Protocol: as §1
(§2) The ABTS scavenging capacities of the samples were compared with that of ascorbic acid. The percent inhibition of the ABTS radical was calculated. The IC50 of each tested sample was determined by plotting a curve using a series of sample concentrations against the percent of ABTS inhibition.

[5] = Nitric oxide (NO) radical scavenging activity (Griess Illosvory reagent)
Protocol: as §1
as §2, with “The nitric oxide (NO) radical scavenging activity was estimated by the reaction with Griess Illosvory reagent based on the method proposed by Chakraborthy[34]. The NO” for “The ABTS”, “the NO” for “the ABTS”, “of NO” for “of ABTS”

[6] = target: α-amylase; test: α-Amylase enzyme inhibition assay; format: biochemical
Protocol: as §1
(§3) The IC50 of each tested sample was determined by plotting a curve using a series of sample concentrations against the percent of enzyme inhibition.

[7] = target: α-glucosidase; test: α-Glucosidase enzyme inhibition assay; format: biochemical
Protocol: as §1, §3

[8] = test system: α-amylase; test: Native electrophoretic α-amylase isoenzyme pattern (PAGE); format: biochemical; conditions: standard enzyme treated with 100 µg/mL
Protocol: (§4) The relative mobility (Rf), band quantity (Qty) and band percent (B%) of the electrophoretically detected isoenzyme types on the PAGE plate were determined using the Quantity One software program (version 4.6.2). The equation proposed by Nei and Li[39] was used to calculate the percentages of similarity index (SI%) and physiological difference (Diff%).

[9] = test system: α-glucosidase; test: SDS-PAGE electrophoretic α-glucosidase pattern; format: biochemical; conditions: 100 µg/mL
Protocol: as §4

CC1(C)OC(=O)C[C@H](O)[C@]2(C)[C@H]3CC[C@@]4(C)[C@H](c5ccoc5)OC(=O)[C@H]5O[C@]54[C@]3(C)C(=O)C[C@@H]12 [Cpd2, deacetylnomilin]
TAC ([1]; sample concentration 50 µg/mL): 21.74 ± 0.06 mg gallic acid/g | TAC ([1]; sample concentration 100 µg/mL): 38.70 ± 0.10 mg gallic acid/g | TAC ([1]; sample concentration 200 µg/mL): 68.88 ± 0.19 mg gallic acid/g | IRP ([2]; sample concentration 50 µg/mL): 16.59 ± 0.06 µg/mL | IRP ([2]; sample concentration 100 µg/mL): 29.53 ± 0.10 µg/mL | IRP ([2]; sample concentration 200 µg/mL): 52.56 ± 0.19 µg/mL | IC50 against DPPH radical ([3]; Fig. 2a): 6.40 ± 0.02 µg/mL (≈ 13.5 µM) | DPPH Inhibition (%) ([3]; sample concentration 50 µg/mL): 18.90 ± 0.05% | DPPH Inhibition (%) ([3]; sample concentration 100 µg/mL): 33.65 ± 0.09% | DPPH Inhibition (%) ([3]; sample concentration 200 µg/mL): 59.90 ± 0.16% | IC50 against ABTS radical ([4]; Fig. 2a): 6.02 ± 0.03 µg/mL (≈ 12.7 µM) | ABTS Inhibition (%) ([4]; sample concentration 50 µg/mL): 16.59 ± 0.06% | ABTS Inhibition (%) ([4]; sample concentration 100 µg/mL): 29.53 ± 0.10% | ABTS Inhibition (%) ([4]; sample concentration 200 µg/mL): 52.56 ± 0.19% | IC50 against NO radical ([5]; Fig. 2a): 7.65 ± 0.04 µg/mL (≈ 16.2 µM) | NO Inhibition (%) ([5]; sample concentration 50 µg/mL): 13.75 ± 0.05% | NO Inhibition (%) ([5]; sample concentration 100 µg/mL): 24.48 ± 0.09% | NO Inhibition (%) ([5]; sample concentration 200 µg/mL): 43.58 ± 0.16% | IC50 against α-amylase ([6]; Fig. 2b): 5.07 ± 0.03 µg/mL (≈ 10.7 µM) | α-Amylase Inhibition (%) ([6]; sample concentration 50 µg/mL): 13.49 ± 0.06% | α-Amylase Inhibition (%) ([6]; sample concentration 100 µg/mL): 24.01 ± 0.10% | α-Amylase Inhibition (%) ([6]; sample concentration 200 µg/mL): 42.74 ± 0.19% | IC50 against α-glucosidase ([7]; Fig. 2b): 3.89 ± 0.03 µg/mL (≈ 8.23 µM) | α-Glucosidase Inhibition (%) ([7]; sample concentration 50 µg/mL): 9.34 ± 0.06% | α-Glucosidase Inhibition (%) ([7]; sample concentration 100 µg/mL): 16.63 ± 0.10% | α-Glucosidase Inhibition (%) ([7]; sample concentration 200 µg/mL): 29.59 ± 0.19% | Change in electrophoretic α-amylase isoenzyme pattern [8]: slight changes | Diff% (physiological difference) of electrophoretic α-amylase pattern from the standard enzyme [8]: 33.33% | SI% (similarity index) of electrophoretic α-amylase pattern to the standard enzyme [8]: 66.67% | Diff% (decrease in the quantity of the identified α-glucosidase band) [9]: 40.64% | Qty (band quantity) of the α-glucosidase band [9]: 11.08 | melting point: 254 °C
